Values quoted from earlier work in patent US12026655B2, “Systems and methods for post-harvest crop quality management” (priority 2017, dated 2024).
Read-outs that look alike come from different tables or passages of the source.

Assays:
[1] = tested on: resistant cigarette beetle
[2] = tested on: Rhyzopertha dominica; settings: e(x, t)>1 means at least 99.9% of the insect population killed
[3] = tested on: tobacco moth and susceptible cigarette beetle
[4] = tobacco temperature 16-20 °C (61-68 °F), 300 ppm phosphine at the bale/case centre

## P [phosphine]
[1]; [4]
  Minimum Exposure Time to achieve 100% control of all development stages: 12 days
[1]; tobacco temperature 20-25 °C (68-77 °F), 300 ppm phosphine at the bale/case centre
  Minimum Exposure Time to achieve 100% control of all development stages: 12 days
[1]; tobacco temperature 20-25 °C (68-77 °F), 700 ppm phosphine at the bale/case centre
  Minimum Exposure Time to achieve 100% control of all development stages: 10 days
[1]; tobacco temperature >25 °C (>77 °F), 300 ppm phosphine at the bale/case centre
  Minimum Exposure Time to achieve 100% control of all development stages: 12 days
[1]; tobacco temperature >25 °C (>77 °F), 600 ppm phosphine at the bale/case centre
  Minimum Exposure Time to achieve 100% control of all development stages: 6 days
[2]
  empirical constant a1 of the extinction indicator function e(x, t): 4.04
  empirical constant a2 of the extinction indicator function e(x, t): 0.6105
[3]; [4]
  Minimum Exposure Time to achieve 100% control of all development stages: 6 days
[3]; tobacco temperature >20 °C (>68 °F), 200 ppm phosphine at the bale/case centre
  Minimum Exposure Time to achieve 100% control of all development stages: 4 days
